Experimental data taken from ChEMBL document CHEMBL5356993, “Novel pyrazolo[3,4-d]pyrimidine derivatives: design, synthesis, anticancer evaluation, VEGFR-2 inhibition, and antiangiogenic activity” (RSC Med Chem, 2023).

Tests used:
HUVEC [1] = test: Antiangiogenic activity against HUVEC cells assessed as wound closure at IC50 incubated for 72 hrs by wound healing assay (reference value: 98.518 %); assay type: functional, Homo sapiens
HUVEC [2] = test: Antiangiogenic activity against HUVEC cells assessed as decrease in healing rate at IC50 incubated for 72 hrs by wound healing assay relative to control; assay type: functional, Homo sapiens; set-up: scale not given: the % may be the effect or the level left
MDA-MB-468 [3] = test: Induction of cell cycle arrest in human MDA-MB-468 cells assessed as accumulation of cells at G2/M phase at IC50 incubated for 24 hrs by RNase/PI staining based flow cytometry (reference value: 16.13 %); assay type: functional
MDA-MB-468 [4] = test: Induction of cell cycle arrest in human MDA-MB-468 cells assessed as decrease in cell population at G0 to G1 phase at IC50 incubated for 24 hrs by RNase/PI staining based flow cytometry relative to control; assay type: functional; set-up: scale not given: the % may be the effect or the level left
MDA-MB-468 [5] = test: Induction of cell cycle arrest in human MDA-MB-468 cells assessed as decrease in cell population at G2/M phase at IC50 incubated for 24 hrs by RNase/PI staining based flow cytometry relative to control; assay type: functional; set-up: scale not given: the % may be the effect or the level left
MDA-MB-468 [6] = test: Induction of apoptosis in human MDA-MB-468 cells assessed as total apoptotic cells at IC50 incubated for 24 hrs by Annexin V/PI staining based flow cytometry (reference value: 2.28 %); assay type: functional
MDA-MB-468 [7] = test: Induction of apoptosis in human MDA-MB-468 cells assessed as early apoptotic cells at IC50 incubated for 24 hrs by Annexin V/PI staining based flow cytometry (reference value: 0.52 %); assay type: functional
MDA-MB-468 [8] = test: Induction of apoptosis in human MDA-MB-468 cells assessed as late apoptotic cells at IC50 incubated for 24 hrs by Annexin V/PI staining based flow cytometry (reference value: 0.17 %); assay type: functional
MDA-MB-468 [9] = test: Induction of apoptosis in human MDA-MB-468 cells assessed as necrotic cells at IC50 incubated for 24 hrs by Annexin V/PI staining based flow cytometry (reference value: 1.59 %); assay type: functional
MDA-MB-468 [10] = test: Induction of apoptosis in human MDA-MB-468 cells assessed as fold increase in total apoptotic cells at IC50 incubated for 24 hrs by Annexin V/PI staining based flow cytometry relative to control; assay type: functional
MDA-MB-468 [11] = test: Induction of apoptosis in human MDA-MB-468 cells assessed as fold increase in caspase-3 level incubated for 2 hrs by ELISA relative to control; assay type: functional
MDA-MB-468 [12] = test: Induction of apoptosis in human MDA-MB-468 cells assessed as increase in caspase-3 level incubated for 2 hrs by ELISA (reference value: 2.109 ng/ml); assay type: functional

Which Activity (HUVEC [1]) does the source give for `Cc1nc2c(cnn2-c2ccccc2)c(=O)n1-c1ccc(NC(=O)c2ccc(F)cc2)cc1` here?
The Activity was 75.555%.

And the Activity (HUVEC [2])?
Its Activity is 23%.

What about the Activity (MDA-MB-468 [3]) of the same compound?
Its Activity is 9.12%.

What about the Activity (MDA-MB-468 [4]) of the same compound?
Its Activity is 10.43%.

What about the Activity (MDA-MB-468 [5]) of the same compound?
The Activity was 43.46%.

And the Activity (MDA-MB-468 [6])?
The Activity was 43.28%.

What about the Activity (MDA-MB-468 [7]) of the same compound?
Its Activity is 15.85%.

And the Activity (MDA-MB-468 [8])?
The Activity was 22.49%.

What about the Activity (MDA-MB-468 [9]) of the same compound?
Its Activity is 4.94%.

What about the “fold change (FC)” value (MDA-MB-468 [10]) of the same compound?
The value was 18.98.

And the “fold change (FC)” value (MDA-MB-468 [11])?
The value was 7.32.

And the Activity (MDA-MB-468 [12])?
Its Activity is 15.44 ng/mL.
